Assay results taken from ChEMBL document CHEMBL5550154, “Novel biaryloxazolidinone derivatives with broad-spectrum antibacterial activity, favorable drug-like profiles and in vivo efficacy against linezolid-resistant Staphylococcusaureus” (Eur J Med Chem, 2024).
In brackets after ≈: the same amount, converted by molar mass. Activity calls are given as the source filed them. The rule behind the calls is not given here.

Key:
[1] = tested on: Staphylococcus aureus; test: Antibacterial activity against Linezolid-resistant Staphylococcus aureus infected in systemic infection SPF-kunming mouse model assessed as survival rate at 10 to 40 mg/kg, IG measured 3 days after infection; assay type: functional, organism-based; settings: dose 10-40 mg/kg
[2] = Stability in simulated gastric acid assessed as compound remaining at pH 1.3 measured at 0.5 hrs; assay type: ADME; settings: read-out: Stability
[3] = Stability in simulated gastric acid assessed as compound remaining at pH 1.3 measured at 1 hr; assay type: ADME; settings: read-out: Stability
[4] = Stability in simulated gastric acid assessed as compound remaining at pH 1.3 measured at 1.5 hrs; assay type: ADME; settings: read-out: Stability
[5] = Stability in simulated gastric acid assessed as compound remaining at pH 1.3 measured at 2 hrs; assay type: ADME; settings: read-out: Stability
[6] = tested on: Staphylococcus aureus; test: Antibacterial activity against Linezolid-resistant Staphylococcus aureus infected in systemic infection IG dosed SPF-kunming mouse model assessed as survival rate measured every day for 7 days; assay type: functional, organism-based; settings: dose 2.5-40 mg/kg, time 7.0 day
[7] = tested on: Staphylococcus aureus; test: Antibacterial activity against Linezolid-resistant Staphylococcus aureus infected in systemic infection SPF-kunming mouse model assessed as survival rate at 2.5 mg/kg, IG measured every day for 7 days; assay type: functional; settings: po, 168 h, time 7 day
[8] = tested on: Staphylococcus aureus; test: Antibacterial activity against Linezolid-resistant Staphylococcus aureus infected in systemic infection SPF-kunming mouse model assessed as survival rate at 40 mg/kg, IG measured every day for 7 days; assay type: functional; settings: po, 168 h, time 7 day
[9] = tested on: Staphylococcus aureus; test: Antibacterial activity against Linezolid-resistant Staphylococcus aureus infected in systemic infection SPF-kunming mouse model assessed as survival rate at 10 mg/kg, IG measured every day for 7 days; assay type: functional, organism-based; settings: time 7.0 day
[10] = molecular target: T1, Amine oxidase [flavin-containing] B (Homo sapiens, UniProt P27338); test: Inhibition of MAO-B (unknown origin) preincubated with compound for 15 mins followed by substrate addition and measured after 60 mins by luminescence based microplate reader analysis; assay type: toxicity
T1 sequence (P27338 whole entry): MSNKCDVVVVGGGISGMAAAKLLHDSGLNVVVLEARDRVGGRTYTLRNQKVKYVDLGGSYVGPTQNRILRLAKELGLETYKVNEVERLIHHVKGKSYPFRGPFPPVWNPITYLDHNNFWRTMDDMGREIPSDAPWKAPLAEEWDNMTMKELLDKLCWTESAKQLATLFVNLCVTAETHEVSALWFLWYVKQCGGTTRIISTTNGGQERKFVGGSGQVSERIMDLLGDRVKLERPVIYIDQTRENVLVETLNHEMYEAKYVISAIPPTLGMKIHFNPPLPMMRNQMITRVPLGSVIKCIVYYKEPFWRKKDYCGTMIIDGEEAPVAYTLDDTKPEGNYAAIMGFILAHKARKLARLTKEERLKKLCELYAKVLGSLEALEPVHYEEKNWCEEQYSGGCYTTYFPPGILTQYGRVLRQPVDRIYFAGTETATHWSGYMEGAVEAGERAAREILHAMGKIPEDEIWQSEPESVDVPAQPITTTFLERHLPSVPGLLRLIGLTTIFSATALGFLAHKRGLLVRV

[11] = tested on: Staphylococcus aureus; test: Antibacterial activity against methicillin-sensitive Staphylococcus aureus assessed as inhibition of bacterial growth; assay type: functional
[12] = tested on: Staphylococcus aureus; test: Antibacterial activity against vancomycin-resistant Staphylococcus aureus assessed as inhibition of bacterial growth; assay type: functional

For `O=C1O[C@@H](CO)CN1c1ccc(-c2ccc(/C=N/N3CCCCC3)nc2)c(F)c1`, the Activity [1] was “inactive”.
Work on `CC(C)N/N=C/c1ccc(-c2ccc(N3C[C@H](CO)OC3=O)cc2F)cn1` yielded a remaining at 0.5 h [2] of 96.7%, a remaining at 1 h [3] of 94.3% and a remaining at 1.5 h [4] of 90.8%. The remaining at 2 h [5] was 87.1%.
In the case of `O=C1O[C@@H](CO)CN1c1ccc(-c2ccc(/C=N/N3CCOCC3)nc2)c(F)c1`, the Activity [6] is reported as “Dose-Dependent Effect”, the survival at 2.5 mg/kg [7] is reported as 0% and the survival at 40 mg/kg [8] is reported as 100%. The Activity [9] was “Active” and the IC50 [10] was 34.8 µM.
`CC(=O)NC[C@H]1CN(c2ccc(N3CCOCC3)c(F)c2)C(=O)O1` [LINEZOLID] showed an MIC [11] of 1 µg/mL (≈ 2.96 µM) and an MIC [12] of 1 µg/mL (≈ 2.96 µM).
